This note sets out measurements from ChEMBL document CHEMBL4265895, “Novel inhibitors of As(III) S-adenosylmethionine methyltransferase (AS3MT) identified by virtual screening” (Bioorg Med Chem Lett, 2018).

For experiment [1], the target named is T1, Arsenite methyltransferase (Homo sapiens, UniProt Q9HBK9).
T1 sequence (Q9HBK9 whole entry): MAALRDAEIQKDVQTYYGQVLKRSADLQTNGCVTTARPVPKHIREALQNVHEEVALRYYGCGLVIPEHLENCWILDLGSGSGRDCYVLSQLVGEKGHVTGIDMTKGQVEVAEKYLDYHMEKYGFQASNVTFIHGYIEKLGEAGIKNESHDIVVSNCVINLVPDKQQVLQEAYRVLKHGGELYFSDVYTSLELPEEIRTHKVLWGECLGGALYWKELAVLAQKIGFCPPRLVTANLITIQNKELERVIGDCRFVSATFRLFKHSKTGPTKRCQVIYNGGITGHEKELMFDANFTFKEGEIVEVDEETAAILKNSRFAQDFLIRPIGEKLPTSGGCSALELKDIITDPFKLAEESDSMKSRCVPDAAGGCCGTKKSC
Kind of experiment: Inhibition of human AS3MT using NaAsO2 as substrate preincubated for 30 minutes followed by substrate addition measured after 90 mins in presence of SAM.

Experiment [2] concerns the target T2, Histone-lysine N-methyltransferase NSD2 (Homo sapiens, UniProt O96028).
T2 sequence (O96028 whole entry): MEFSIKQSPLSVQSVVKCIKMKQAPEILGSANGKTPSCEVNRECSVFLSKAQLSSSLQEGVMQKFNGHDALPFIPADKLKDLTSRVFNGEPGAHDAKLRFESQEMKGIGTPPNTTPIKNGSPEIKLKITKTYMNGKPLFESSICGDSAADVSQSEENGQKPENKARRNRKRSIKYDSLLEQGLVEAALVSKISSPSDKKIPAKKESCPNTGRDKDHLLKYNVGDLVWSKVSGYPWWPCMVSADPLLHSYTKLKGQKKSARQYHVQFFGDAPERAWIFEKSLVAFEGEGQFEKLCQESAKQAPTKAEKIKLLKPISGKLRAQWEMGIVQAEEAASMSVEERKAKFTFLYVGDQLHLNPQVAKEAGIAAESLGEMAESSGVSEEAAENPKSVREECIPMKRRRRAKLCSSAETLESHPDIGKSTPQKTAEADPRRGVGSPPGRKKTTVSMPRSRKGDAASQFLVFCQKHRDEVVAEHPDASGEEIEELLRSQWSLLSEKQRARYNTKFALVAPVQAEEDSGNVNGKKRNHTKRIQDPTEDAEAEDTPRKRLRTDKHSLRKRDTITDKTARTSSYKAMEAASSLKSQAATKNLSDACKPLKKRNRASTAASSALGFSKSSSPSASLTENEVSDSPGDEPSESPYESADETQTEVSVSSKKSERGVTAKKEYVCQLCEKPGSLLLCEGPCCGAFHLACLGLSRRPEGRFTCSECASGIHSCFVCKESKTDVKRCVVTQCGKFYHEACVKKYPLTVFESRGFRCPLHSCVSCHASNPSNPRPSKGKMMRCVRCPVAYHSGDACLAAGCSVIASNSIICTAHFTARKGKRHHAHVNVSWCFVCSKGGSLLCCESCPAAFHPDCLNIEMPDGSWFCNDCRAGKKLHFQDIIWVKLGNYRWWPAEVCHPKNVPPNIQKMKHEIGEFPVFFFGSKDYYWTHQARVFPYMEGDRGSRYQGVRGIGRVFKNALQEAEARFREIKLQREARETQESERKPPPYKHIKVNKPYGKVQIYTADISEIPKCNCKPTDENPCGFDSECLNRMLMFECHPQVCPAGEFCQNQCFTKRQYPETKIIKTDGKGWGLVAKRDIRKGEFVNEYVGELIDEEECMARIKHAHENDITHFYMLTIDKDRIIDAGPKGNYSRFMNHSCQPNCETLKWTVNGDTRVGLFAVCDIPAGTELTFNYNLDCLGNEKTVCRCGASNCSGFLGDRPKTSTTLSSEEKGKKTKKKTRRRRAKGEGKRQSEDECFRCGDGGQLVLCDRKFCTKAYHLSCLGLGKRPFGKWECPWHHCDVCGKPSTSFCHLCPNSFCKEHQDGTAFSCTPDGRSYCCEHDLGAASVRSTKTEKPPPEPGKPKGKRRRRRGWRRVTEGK
Put plainly: Inhibition of full-length NSD2 (unknown origin) using HeLa oligonucleosome as substrate preincubated for 15 mins followed by substrate addition measured after 45 mins in presence of SAM by MTaseGlo assay.

Experiment [3] deals with Histone-lysine N-methyltransferase, H3 lysine-79 specific (Homo sapiens, UniProt Q8TEK3). Kind of experiment: Inhibition of full-length DOT1L (unknown origin) using HeLa oligonucleosome as substrate preincubated for 15 mins followed by substrate addition measured after 45 mins in presence of SAM by MTaseGlo assay.
Sequence of Histone-lysine N-methyltransferase, H3 lysine-79 specific (Q8TEK3 whole entry): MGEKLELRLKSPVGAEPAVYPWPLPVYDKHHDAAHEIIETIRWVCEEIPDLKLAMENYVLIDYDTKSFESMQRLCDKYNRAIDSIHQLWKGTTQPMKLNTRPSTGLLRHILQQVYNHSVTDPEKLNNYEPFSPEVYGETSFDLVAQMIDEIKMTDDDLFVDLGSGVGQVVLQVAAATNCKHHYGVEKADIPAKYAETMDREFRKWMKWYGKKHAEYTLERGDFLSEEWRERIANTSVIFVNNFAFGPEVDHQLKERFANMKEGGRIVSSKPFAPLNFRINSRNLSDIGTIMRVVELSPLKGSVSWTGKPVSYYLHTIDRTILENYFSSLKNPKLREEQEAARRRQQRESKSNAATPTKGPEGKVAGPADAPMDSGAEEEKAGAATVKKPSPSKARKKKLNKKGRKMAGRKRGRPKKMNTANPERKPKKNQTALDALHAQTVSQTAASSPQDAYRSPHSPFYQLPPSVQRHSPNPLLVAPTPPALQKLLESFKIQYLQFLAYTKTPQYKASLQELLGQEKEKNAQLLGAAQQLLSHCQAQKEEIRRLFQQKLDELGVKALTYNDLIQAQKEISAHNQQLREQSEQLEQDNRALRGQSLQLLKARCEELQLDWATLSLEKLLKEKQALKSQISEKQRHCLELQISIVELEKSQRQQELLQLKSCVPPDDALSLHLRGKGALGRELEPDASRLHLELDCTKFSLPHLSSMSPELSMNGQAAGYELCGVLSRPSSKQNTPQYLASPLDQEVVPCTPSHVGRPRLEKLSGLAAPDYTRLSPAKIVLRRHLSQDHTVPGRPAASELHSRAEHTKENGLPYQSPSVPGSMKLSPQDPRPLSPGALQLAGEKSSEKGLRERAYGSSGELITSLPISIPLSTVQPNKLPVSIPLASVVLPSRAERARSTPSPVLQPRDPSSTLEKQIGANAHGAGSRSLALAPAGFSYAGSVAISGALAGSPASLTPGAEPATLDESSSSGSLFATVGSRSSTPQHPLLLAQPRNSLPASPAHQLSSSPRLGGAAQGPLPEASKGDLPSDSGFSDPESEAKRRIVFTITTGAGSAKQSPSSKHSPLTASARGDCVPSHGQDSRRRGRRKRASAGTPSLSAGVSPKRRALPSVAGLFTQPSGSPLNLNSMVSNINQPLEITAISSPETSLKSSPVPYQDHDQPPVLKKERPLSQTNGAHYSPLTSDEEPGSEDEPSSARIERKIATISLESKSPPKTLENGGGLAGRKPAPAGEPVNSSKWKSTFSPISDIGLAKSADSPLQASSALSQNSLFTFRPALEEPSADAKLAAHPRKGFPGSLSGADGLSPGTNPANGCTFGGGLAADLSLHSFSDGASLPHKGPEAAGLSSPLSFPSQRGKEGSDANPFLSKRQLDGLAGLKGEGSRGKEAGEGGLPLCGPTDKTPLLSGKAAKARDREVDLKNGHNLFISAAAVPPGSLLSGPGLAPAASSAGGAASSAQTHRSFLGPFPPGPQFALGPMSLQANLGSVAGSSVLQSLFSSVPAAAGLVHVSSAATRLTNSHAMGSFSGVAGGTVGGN

By pIC50 is commonly meant the IC50 on a negative log10 scale, so that one unit is a factor of ten.

The structures appear in SMILES notation. pIC50: −log10 of the molar value. Where only a bound is given, the exact number is not on record here.

Take `CCn1cc(C#N)c2cc(Oc3ccc(NC(=O)CN)cc3)ccc21`: the pIC50 in experiment [1] was less than 4.00.
Regarding `N#Cc1c(N)[nH]c2ccc(OCc3ccccc3)cc12`, the negative logarithm of the IC50 (pIC50) is 5.44 in experiment [1], 4.31 in experiment [2] and less than 4.00 in experiment [3].
`N#Cc1c(N)[nH]c2ccc(Oc3ccc(NC(=O)[C@@H](N)CO)cc3)cc12`: the values for the pIC50 in experiment [1], in experiment [2] and in experiment [3] were 5.52, 4.96 and less than 4.00, respectively.
Consider `CCn1c(N)c(C#N)c2cc(Oc3ccc(NC(=O)CN)cc3)ccc21`, for which the pIC50 in experiment [1] was 5.74; in experiment [2], 4.92; in experiment [3], 4.00.
Regarding `CN(C)C(=O)Cn1c(N)c(C#N)c2cc(Oc3ccc(NC(=O)CN)cc3)ccc21`, the pIC50 in experiment [1] was 5.08.
For `N#Cc1c(N)[nH]c2ccc(Oc3ccc(NC(=O)[C@H](N)CO)cc3)cc12`, the pIC50 in experiment [1] was 5.30; in experiment [2], 5.04; in experiment [3], less than 4.00.
As for `Cn1c(N)c(C#N)c2cc(OCc3cccc(NC(=O)C(N)CO)c3)ccc21` (centres undefined), in experiment [1], the pIC50 is 5.54.
Take `Cn1c(N)c(C#N)c2cc(OCc3cccc(N)c3)ccc21`: the values for the pIC50 in experiment [1], in experiment [2] and in experiment [3] were 5.85, less than 4.00 and less than 4.00, respectively.
On to `CC(C)(C)C(=O)Nc1[nH]c2ccc(OCc3ccccc3)cc2c1C#N`, for which the pIC50 in experiment [1] is less than 4.00.
Regarding `Cn1c(N)c(C#N)c2cc(Oc3ccc(NC(=O)CN)cc3)ccc21`, the pIC50 is 5.48 in experiment [1], 4.33 in experiment [2] and less than 4.00 in experiment [3].
For `Cn1c(N)c(C#N)c2cc(OCc3ccccc3)ccc21`, the figures for the pIC50 in experiment [1], in experiment [2] and in experiment [3] were 4.87, less than 4.00 and less than 4.00, respectively.
In the case of `N#Cc1c(N)n(CC2CC2)c2ccc(Oc3ccc(NC(=O)CN)cc3)cc12`, the pIC50 in experiment [1] was 5.82; in experiment [2] it was 5.24; in experiment [3], 4.02.
Take `N#Cc1c(N)n(CC(N)=O)c2ccc(Oc3ccc(NC(=O)CN)cc3)cc12`: in experiment [1], the pIC50 is 4.70.
